Source: US4689345A, “Oxygenated alkyl substituted bicyclo alkanes” (CBD Corporation, priority 1986, dated 1987)
Values joined by “and” are separate entries in the source; they are usually repeats but may differ in a detail not shown here. Identical values can stand only once. Like-named read-outs stand apart in the source and are kept apart here.

Assays:
progesterone receptor [1] = target: T1, progesterone receptor (Homo sapiens, UniProt P06401); assay: Progesterone receptor inhibition in skin/tissue fibroblast lines; assay type: cell-based; details: DHT:compound 1:1,000
T1 construct: Skin fibroblast tissue lines from surgical explants were obtained; endogenous in cells; host or cells: skin fibroblast lines from surgical explants (keloid, scalp, forearm)
T1 sequence (P06401 1-933): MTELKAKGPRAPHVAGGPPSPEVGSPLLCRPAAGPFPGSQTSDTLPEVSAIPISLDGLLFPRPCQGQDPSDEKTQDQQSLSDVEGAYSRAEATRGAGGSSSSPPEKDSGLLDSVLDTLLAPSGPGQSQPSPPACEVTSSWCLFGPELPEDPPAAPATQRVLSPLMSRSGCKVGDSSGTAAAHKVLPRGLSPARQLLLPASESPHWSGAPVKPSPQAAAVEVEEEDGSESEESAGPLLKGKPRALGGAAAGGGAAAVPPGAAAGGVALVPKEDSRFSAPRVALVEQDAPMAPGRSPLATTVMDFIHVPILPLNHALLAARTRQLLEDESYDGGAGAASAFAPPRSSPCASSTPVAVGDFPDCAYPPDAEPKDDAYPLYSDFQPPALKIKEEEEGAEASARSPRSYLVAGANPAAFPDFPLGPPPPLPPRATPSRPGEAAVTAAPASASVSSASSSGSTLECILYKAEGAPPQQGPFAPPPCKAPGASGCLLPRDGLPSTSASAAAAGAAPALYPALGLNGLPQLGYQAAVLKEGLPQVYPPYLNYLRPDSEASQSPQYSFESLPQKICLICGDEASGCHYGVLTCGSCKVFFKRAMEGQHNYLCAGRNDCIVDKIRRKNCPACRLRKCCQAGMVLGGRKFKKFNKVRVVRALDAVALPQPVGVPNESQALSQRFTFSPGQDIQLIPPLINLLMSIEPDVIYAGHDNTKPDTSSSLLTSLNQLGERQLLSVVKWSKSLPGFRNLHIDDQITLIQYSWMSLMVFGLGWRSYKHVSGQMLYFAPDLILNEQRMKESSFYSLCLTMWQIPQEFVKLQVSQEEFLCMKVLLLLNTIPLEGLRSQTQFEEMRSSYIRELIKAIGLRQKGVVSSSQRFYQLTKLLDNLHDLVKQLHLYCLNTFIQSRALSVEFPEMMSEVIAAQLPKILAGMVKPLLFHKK
Description: Explants of both normal and keloid skin and tissue fibroblast lines were established.
Hormonal receptor analyses on these tissues were performed by the method of Griffith et al., Journal of Clinical Investigation, Vol. 57, page 1340 (1978).

estrogen receptor [2] = assay: Effect on estrogen receptors in melanoma; assay type: binding; details: 1:1000 DHT to compound
keloid = assay: Suppression of keloid formation; set-up: species or system human
[3] = test system: estrogen receptor (keloid cytosol); assay: Keloid cytosol steroid binding assay, estrogen; set-up: species or system human
[4] = test system: androgen binding sites in a melanoma; assay: Blocking of androgen binding sites in a melanoma; details: 1:1000 of dihydrotestosterone to the tested compound
progesterone receptors = assay: Effect on progesterone receptors in breast capsule tissue; assay type: binding, human; details: breast capsule / hard band tissue
Description: "Hard fibrous band" formation was retarded around breast implants following augmentation surgery.
The tissues were evaluated, with appropriate controls, for effects by the novel anti-androgen.

androgen receptor [5] = assay: Androgen receptor inhibition, Torulopsis; assay type: binding
Saccharomyces cerevisiae = assay: Fermentation: ethanol production; assay type: cell-based
androgen receptor [6] = assay: Androgen receptor inhibition, Actinomyces; assay type: binding
estrogen receptor [7] = assay: Estrogen receptor inhibition, Actinomyces; assay type: binding
estrogen receptor [8] = assay: Estrogen receptor inhibition, Fulsarium gravarium; assay type: binding
Excerpt: (§1) In the second series of experiments using the compound of the invention 2-(5-hydroxyhept-1-yl) bicyclo[3.3.0]octan-7-one {hexahydro-4-(5-hydroxyheptyl)-2-(1H)-pentalenone} upon zeralenone and zearalanol production, zearalenone and zearalanol were chemically obtained from Sigma Chemical Co., St. Louis, Mo.

progesterone receptor [9] = assay: Progesterone receptor inhibition, Sporotrichum; assay type: binding
androgen receptor [10] = assay: Androgen receptor inhibition, Fusarium calorum; assay type: binding
Excerpt: as §1

androgen receptor [11] = assay type: binding; details: Histoplasma
progesterone receptor [12] = assay: Progesterone receptor inhibition, Actinomyces; assay type: binding
estrogen receptor [13] = assay: Fungal estrogen receptor inhibition, Fusarium; assay type: binding
androgen receptor [14] = assay: Androgen receptor inhibition, Fulsarium gravarium; assay type: binding
Excerpt: as §1

progesterone receptor [15] = assay: Progesterone receptor inhibition, Candida; assay type: binding
estrogen receptor [16] = assay: Estrogen receptor inhibition, Pseudomonas testosteroni; assay type: binding
androgen receptor [17] = assay: Androgen receptor inhibition, Candida; assay type: binding
androgen receptor [18] = assay: Androgen receptor inhibition, Norcardia; assay type: binding
progesterone receptor [19] = assay: Progesterone receptor inhibition, Saccharomyces cerevisiae strains; details: DHT:anti-androgen 1:1,000

## CCC(CCCCC1CCC2CC(=O)CC12)OC (centres unmarked) [Compound V, 2-(5-Methoxyhept-1-yl)bicyclo[3.3.0]octan-7-one]
Progesterone receptor [1]; more than 400 experiments
  interference with progesterone receptors: without significant interference
Progesterone receptor [1]; forearm
  % Progesterone Receptor Inhibition: 4%
Progesterone receptor [1]; keloid
  % Progesterone Receptor Inhibition: 0%
Progesterone receptor [1]; keloid, listed as 2-(5-methoxyhept-1-yl)bicyclo[3.3.0]octan-7-one
  % Progesterone Receptor Inhibition: no measurable
Progesterone receptor [1]; scalp
  % Progesterone Receptor Inhibition: 7% and 0% and 3%
Estrogen receptor [2]
  effect on estrogen receptors in melanoma tissue: no significant effect
keloid
  keloid formation: suppression of keloid formation
[3]
  effect on binding of estrogen: no effect
[4]
  block of androgen binding sites in a melanoma: 59-80%
Progesterone receptors
  effect on progesterone receptors: without any significant effects
Progesterone receptors; listed as 2-(5-methoxyhept-1-yl)bicyclo[3.3.0]octan-7-one
  effect on progesterone receptors: no significant effects

## CCC(O)CCCCC1CCC2CC(=O)CC12 (centres unmarked) [Compound IV]
Androgen receptor [5]
  % Androgen Receptor Inhibition: 77%
Saccharomyces cerevisiae; other strains
  depression of ethanol production: one-eighth its normal rate
Saccharomyces cerevisiae; some strains
  increase of ethanol production: as much as three times the natural rate
Androgen receptor [6]
  % Androgen Receptor Inhibition: 90%
Estrogen receptor [7]
  % Estrogen Receptor Inhibition: 0%
Estrogen receptor [8]; DHT:anti-androgen 1:1
  % Estrogen Receptor Inhibition: 0%
Estrogen receptor [8]; DHT:anti-androgen 1:10
  % Estrogen Receptor Inhibition: 0%
Estrogen receptor [8]; DHT:anti-androgen 1:100
  % Estrogen Receptor Inhibition: 0%
Estrogen receptor [8]; DHT:anti-androgen 1:1,000
  % Estrogen Receptor Inhibition: 0%
Progesterone receptor [9]
  % Progesterone Receptor Inhibition: 7%
Androgen receptor [10]; DHT:anti-androgen 1:1
  % Androgen Receptor Inhibition: 29%
Androgen receptor [10]; DHT:anti-androgen 1:10
  % Androgen Receptor Inhibition: 37%
Androgen receptor [10]; DHT:anti-androgen 1:100
  % Androgen Receptor Inhibition: 79%
Androgen receptor [10]; DHT:anti-androgen 1:1,000
  % Androgen Receptor Inhibition: 90%
Androgen receptor [11]
  % Androgen Receptor Inhibition: 47%
Progesterone receptor [12]
  % Progesterone Receptor Inhibition: 0%
Estrogen receptor [13]; fungal hormone Zeralanol
  % Estrogen Receptor Inhibition: 0%
Estrogen receptor [13]; fungal hormone Zeralenone
  % Estrogen Receptor Inhibition: 0%
Androgen receptor [14]; DHT:anti-androgen 1:1
  % Androgen Receptor Inhibition: 26%
Androgen receptor [14]; DHT:anti-androgen 1:10
  % Androgen Receptor Inhibition: 49%
Androgen receptor [14]; DHT:anti-androgen 1:100
  % Androgen Receptor Inhibition: 67%
Androgen receptor [14]; DHT:anti-androgen 1:1,000
  % Androgen Receptor Inhibition: 87%
Progesterone receptor [15]
  % Progesterone Receptor Inhibition: 7%
Estrogen receptor [16]; strain 1
  % Estrogen Receptor Inhibition: 0%
Estrogen receptor [16]; strain 2
  % Estrogen Receptor Inhibition: 0%
Estrogen receptor [16]; strain 3
  % Estrogen Receptor Inhibition: 0%
Estrogen receptor [16]; strain 4
  % Estrogen Receptor Inhibition: 0%
Androgen receptor [17]
  % Androgen Receptor Inhibition: 92%
Androgen receptor [18]
  % Androgen Receptor Inhibition: 50%
Progesterone receptor [19]; strain 1
  % Progesterone Receptor Inhibition: 2%
Progesterone receptor [19]; strain 2
  % Progesterone Receptor Inhibition: 1%
Progesterone receptor [19]; strain 3
  % Progesterone Receptor Inhibition: 0%
Progesterone receptor [19]; strain 4
  % Progesterone Receptor Inhibition: 0%
Progesterone receptor [19]; strain 5
  % Progesterone Receptor Inhibition: 3%
Progesterone receptor [19]; strain 6
  % Progesterone Receptor Inhibition: 8%
Progesterone receptor [19]; strain 7
  % Progesterone Receptor Inhibition: 4%
